What was measured:
[1] = molecular target: T1, HCV1b NS5B polymerase delta 21 (Hepatitis C virus genotype 1b, UniProt P26663); assay: RNA-Dependent RNA HCV NS5B (Polymerase) Assay and IC50 Determination; type: biochemical
T1 construct: purified HCV1b NS5B polymerase delta 21
How it was run: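 Purified NS5B Δ21 (0.6 μg) with polyA:U16 template, 10 μM UTP plus α-32P UTP in Tris-HCl pH 7.5, 5 mM MgCl2, 0.5% Triton X-100, 60 min at 23°C with varied compound concentrations. Radiolabelled RNA captured on filters, quantified by phosphorimaging; IC50 from triplicate assays.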

[2] = tested on: HCV1b replicon; assay: HCV Replicon Assay and EC50 Determination (Huh-7 cells, luciferase reporter); type: cell-based; details: Hepatitis C virus; Huh-7 cell line with HCV1b replicon containing luciferase reporter, 72 hr, triplicate assays
Method: HCV Replicon Assay and EC50 Determination
The antiviral activity of compounds against hepatitis C virus was determined by a hepatitis C virus replicon reporter cell line developed by Bartenschlager (Lohmann et al., Science 1999, 285:110-113). This cell-based assay utilized a liver cell carcinoma (Huh-7) cell line stably transformed with an HCV1b replicon containing a luciferase reporter gene. Varied concentrations of compounds were added to the reporter cell line, and further incubated at 37° C. for 72 hr in DMEM supplemented with 10% FCS. The inhibitory effects of experimental compounds or the reference compound, interferon alpha (INFα), on HCV replication were measured by luciferase activity using the Britelite™ plus luminescence reporter gene kit (Perkin Elmer, Shelton, Conn.). The Britelite plus reagent was added to the 96-well plates containing the HCV reporter cells, and luminescence was measured within 15 min using a Wallac 1450 Microbeta® Trilux liquid scintillation counter. EC50 values were calculated using GraFit 6 and GraphPad Prism 5 from triplicate HCV replicon assays.

T1 sequence (P26663 2420-2989): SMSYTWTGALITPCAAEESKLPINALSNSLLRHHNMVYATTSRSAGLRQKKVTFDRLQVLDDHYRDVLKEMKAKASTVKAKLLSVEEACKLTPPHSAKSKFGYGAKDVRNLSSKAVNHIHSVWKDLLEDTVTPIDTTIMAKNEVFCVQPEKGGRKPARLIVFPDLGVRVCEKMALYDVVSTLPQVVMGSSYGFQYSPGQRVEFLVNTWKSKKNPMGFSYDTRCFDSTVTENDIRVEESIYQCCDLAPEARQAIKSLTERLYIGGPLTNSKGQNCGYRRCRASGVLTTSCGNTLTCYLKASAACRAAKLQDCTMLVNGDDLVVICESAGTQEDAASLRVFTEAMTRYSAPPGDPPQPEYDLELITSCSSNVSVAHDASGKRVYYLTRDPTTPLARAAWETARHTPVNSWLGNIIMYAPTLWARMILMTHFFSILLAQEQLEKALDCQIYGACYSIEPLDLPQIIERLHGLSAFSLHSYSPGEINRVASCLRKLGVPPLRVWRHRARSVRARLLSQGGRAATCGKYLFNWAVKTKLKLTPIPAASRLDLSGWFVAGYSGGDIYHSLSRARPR

Molecule `CC1CCC(C2=C(c3cc(-c4ccccc4)sc3C(=O)O)CCN(C)C2)CC1` (stereo not shown) [Example 001, 3-[1-Methyl-5-(4-methyl-cyclohexyl)-1,2,3,6-tetrahydro-pyridin-4-yl]-5-phenyl-thiophene-2-carboxylic acid] has an IC50 [1] of less than 3 µM and an EC50 [2] of less than 3 µM.
In the case of `CC1CCC(C2=C(c3cc(C#CC(C)(C)C)sc3C(=O)O)CCN(C)C2)CC1` (stereo not shown) [Example 003, 5-(3,3-Dimethyl-but-1-ynyl)-3-[1-methyl-5-(4-methyl-cyclohexyl)-1,2,3,6-tetrahydro-pyridin-4-yl]-thiophene-2-carboxylic acid], the IC50 [1] is reported as less than 3 µM and the EC50 [2] is reported as less than 3 µM.
`CC1CCC(C2=C(c3cc(-c4ccc(-c5cc6ncccn6n5)cc4)sc3C(=O)O)CCN(C)C2)CC1` (stereo not shown) [Example 005, 3-[1-Methyl-5-(4-methyl-cyclohexyl)-1,2,3,6-tetrahydro-pyridin-4-yl]-5-(4-pyrazolo[1,5-a]pyrimidin-2-yl-phenyl)-thiophene-2-carboxylic acid] showed an IC50 [1] of less than 3 µM and an EC50 [2] of less than 3 µM.
`CC1CCC(C2=C(c3cc(-c4ccc(NC(=O)c5cscn5)cc4)sc3C(=O)O)CCN(C)C2)CC1` (stereo not shown) [Example 013, 3-[1-Methyl-5-(4-methyl-cyclohexyl)-1,2,3,6-tetrahydro-pyridin-4-yl]-5-{4-[(thiazole-4-carbonyl)-amino]-phenyl}-thiophene-2-carboxylic acid] was tested, and the IC50 [1] was less than 3 µM and the EC50 [2] was less than 3 µM.
For `CC1CC=C(C2=C(c3cc(-c4ccccc4)sc3C(=O)O)CCN(C)C2)CC1` (stereo not shown) [Example 109, 3-[1-Methyl-5-(4-methyl-cyclohex-1-enyl)-1,2,3,6-tetrahydro-pyridin-4-yl]-5-phenyl-thiophene-2-carboxylic acid], the IC50 [1] was less than 3 µM and the EC50 [2] was greater than 10 µM.
With `Cc1cc(C)n2nc(CN3CCC(c4cc(-c5ccc(NC(=O)c6cscn6)cc5)sc4C(=O)O)=C(C4CCC(C)CC4)C3)nc2n1` (stereo not shown) [Example 130, 3-[1-(5,7-Dimethyl-[1,2,4]triazolo[1,5-a]pyrimidin-2-ylmethyl)-5-(4-methyl-cyclohexyl)-1,2,3,6-tetrahydro-pyridin-4-yl]-5-{4-[(thiazole-4-carbonyl)-amino]-phenyl}-thiophene-2-carboxylic acid] the IC50 [1] was less than 3 µM and the EC50 [2] was less than 3 µM.
Molecule `CCCC(C)C#Cc1cc(C2=C(C3CCC(C)CC3)CCN(C)C2)c(C(=O)O)s1` (stereo not shown) [Example 177, 5-(3-Methyl-hex-1-ynyl)-3-[1-methyl-4-(4-methyl-cyclohexyl)-1,2,5,6-tetrahydro-pyridin-3-yl]-thiophene-2-carboxylic acid] has an IC50 [1] of 3 to 10 µM.
